*1 amine or outer side, *2 acyl side, *3 side chain or, on linkers, in order; H or OH if unused. Where a SMILES comes first, the peptide text is derived from it. Bridges are numbered along the chain shown (N, C = ends). [ ]: non-standard residue; d: D form. The star is where a group is joined. hPhe(3-Cl-4-CF3) = N[C@@H](CCc1ccc(C(F)(F)F)c(Cl)c1)C(=O)O; X22 = C=CCCN([C@@H](Cc1ccc(C(F)(F)F)cc1)C(=O)[*:2])[*:1]; NPrPhe(4-CF3) = CCCN[C@@H](Cc1ccc(C(F)(F)F)cc1)C(=O)O; NMeGly(cPent) = CN[C@H](C(=O)O)C1CCCC1; Pro(4,4-F2) = O=C(O)[C@@H]1CC(F)(F)CN1; Gly(N-propargyl) = C#CCNCC(=O)O; NMeD = CN[C@@H](CC(=O)O)C(=O)O; NMeL = CN[C@@H](CC(C)C)C(=O)O; Morpholide = C1CN(*)CCO1; NMeA = CN[C@@H](C)C(=O)O; Ac5c = NC1(C(=O)O)CCCC1; Aze = O=C(O)[C@@H]1CCN1; Sar = CNCC(=O)O
Tests used:
[1] = target: HRAS wild-type protein (Homo sapiens, UniProt P01112); assay: Binding to HRAS by surface plasmon resonance (SPR), KD and KD ratio to KRAS
Chain of HRAS wild-type protein (P01112 whole entry): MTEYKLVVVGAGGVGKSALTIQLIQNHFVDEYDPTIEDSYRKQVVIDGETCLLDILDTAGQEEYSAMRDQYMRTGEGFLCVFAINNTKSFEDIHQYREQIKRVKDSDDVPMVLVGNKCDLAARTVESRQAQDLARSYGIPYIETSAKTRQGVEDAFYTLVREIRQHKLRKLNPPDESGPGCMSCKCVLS
In short: (§1)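 Captured GDP-RAS (~100–300 RU) was exposed to increasing compound concentrations, 75 s per step, in running buffer with 10 µM GDP, 10 mM MgCl2 and 4% DMSO at pH 7.4.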

[2] = target: GDP-bound NRAS wild-type protein (Homo sapiens, UniProt P01111); assay: Binding to NRAS by surface plasmon resonance (SPR), KD and KD ratio to KRAS
Chain of GDP-bound NRAS wild-type protein (P01111 whole entry): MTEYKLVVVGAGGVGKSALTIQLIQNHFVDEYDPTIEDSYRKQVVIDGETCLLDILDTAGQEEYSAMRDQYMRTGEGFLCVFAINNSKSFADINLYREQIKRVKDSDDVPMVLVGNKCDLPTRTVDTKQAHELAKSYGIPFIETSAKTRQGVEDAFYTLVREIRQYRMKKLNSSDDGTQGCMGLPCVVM
In short: as §1

[3] = test system: human lung cancer strain NCI-H441; assay type: cell-based
In short: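 Step one: dispense the test compound in serial DMSO dilutions. Step three: add the reagent and measure […].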

[4] = ratio of KD value for HRAS wild-type protein to KD value for KRAS (SPR)
[5] = ratio of KD value for GDP-bound NRAS wild-type protein to KD value for KRAS (SPR)
[6] = ratio of the KD value with respect to HRAS wild-type protein to the KD value with respect to KRAS
[7] = ratio of the KD value with respect to GDP-bound NRAS wild-type protein to the KD value with respect to KRAS
[8] = ratio of KD for HRAS wild-type protein to KD for KRAS
[9] = ratio of KD for GDP-bound NRAS wild-type protein to KD for KRAS

SMILES	HRAS /KRAS [1, 4]	NRAS /KRAS [2, 5]	IC50 [3]	HRAS /KRAS [1, 6]	NRAS /KRAS [2, 7]	HRAS /KRAS [1, 8]	NRAS /KRAS [2, 9]
CCC[C@H]1C(=O)N[C@@H]([C@@H](C)CC)C(=O)N(C)CC(=O)N(C)[C@H]2C/C=C\CCN(C2=O)[C@@H](Cc2ccc(C)cc2)C(=O)N(C)CC(=O)N[C@@H](CCc2ccc(C(F)(F)F)c(OC)c2)C(=O)N2C[C@@H](C)C[C@H]2C(=O)NC2(CC(C)(C)C2)C(=O)N(C)[C@@H](C2CCCC2)C(=O)N(C)[C@H](C(=O)N(C)CC)CC(=O)N1C [PP1889]	B (a compound having 3 or more and less than 10 is denoted as B)	A (a compound having 10 or more and less than 20 is denoted as A)	12.5 nM	–	–	–	–
CCCN(C)C(=O)[C@@H]1CC(=O)N(C)[C@@H](C2CC2)C(=O)N[C@@H]([C@@H](C)CC)C(=O)N(C)CC(=O)N(C)[C@H]2C/C=C\CCN(C2=O)[C@@H](Cc2ccc(C(F)(F)F)cc2)C(=O)N(C)CC(=O)N[C@@H](CCc2ccc(C(F)(F)F)c(OC)c2)C(=O)N2C[C@H](OCC)C[C@H]2C(=O)NC2(CC(C)(C)C2)C(=O)N(C)[C@@H](C2CCCC2)C(=O)N1C [PP1983]	–	–	20.2 nM	A (a compound having 10 or more and less than 20 is denoted as A)	AA (a compound having 20 or more is denoted as AA)	–	–
CCO[C@@H]1C[C@H]2C(=O)NC3(CCC3)C(=O)N(C)[C@@H](C(CC)CC)C(=O)N(C)[C@H](C(=O)N(C)C)CC(=O)N(C)[C@@H](CC(C)C)C(=O)N[C@@H]([C@@H](C)CC)C(=O)N(C)CC(=O)N(C)[C@H]3C/C=C\CCN(C3=O)[C@@H](Cc3ccc(F)cc3)C(=O)N(C)CC(=O)N[C@@H](CCc3cc(F)c(C(F)(F)F)c(F)c3)C(=O)N2C1 [PP1519]	A (a compound having 10 or more and less than 20 is denoted as A)	A (a compound having 10 or more and less than 20 is denoted as A)	78.2 nM	–	–	–	–
CCO[C@@H]1C[C@H]2C(=O)NC3(CCC3)C(=O)N(C)[C@@H](C3CCCC3)C(=O)N(C)[C@H](C(=O)N(C)C)CC(=O)N(C)[C@@H](CC3CCCC3)C(=O)N[C@@H]([C@@H](C)CC)C(=O)N(C)CC(=O)N(C)[C@H]3C/C=C\CCN(C3=O)[C@@H](Cc3ccc(C)cc3)C(=O)N(C)CC(=O)N[C@@H](CCc3ccc(C4CC4)c(F)c3)C(=O)N2C1 [PP2683]	–	–	63.3 nM	–	–	A (a compound having 10 or more and less than 20 is denoted as A)	A (a compound having 10 or more and less than 20 is denoted as A)
CC[C@H](C)[C@@H]1NC(=O)[C@H](CC)N(C)C(=O)C[C@@H](C(=O)N(C)C)N(C)C(=O)[C@H](C2CCCC2)N(C)C(=O)C2(CCC2)NC(=O)[C@@H]2CCCN2C(=O)[C@H](CCc2cc(C)c(Cl)c(C)c2)NC(=O)CN(C)C(=O)[C@H](Cc2ccc(C(F)(F)F)cc2)N2CC/C=C\C[C@@H](C2=O)N(C)C(=O)CN(C)C1=O [PP1822]	B (a compound having 3 or more and less than 10 is denoted as B)	A (a compound having 10 or more and less than 20 is denoted as A)	107 nM	–	–	–	–
CCO[C@@H]1C[C@H]2C(=O)NC3(CCC3)C(=O)N(C)[C@@H](C3CCCC3)C(=O)N(C)[C@H](C(=O)N(C)C)CC(=O)N(C)[C@@H](CC)C(=O)N[C@@H]([C@@H](C)CC)C(=O)N3C[C@H](OCC)C[C@H]3C(=O)N(C)[C@H]3C/C=C\CCN(C3=O)[C@@H](Cc3ccc(C(F)(F)F)cc3)C(=O)N(C)CC(=O)N[C@@H](CCc3cc(F)c(C(F)(F)F)c(F)c3)C(=O)N2C1 [PP1057]	–	–	96.9 nM	–	–	B (a compound having 3 or more and less than 10 is denoted as B)	A (a compound having 10 or more and less than 20 is denoted as A)
CCCN1C(=O)CN(C)C(=O)[C@@H]2CCN2C(=O)[C@H]([C@@H](C)CC)NC(=O)[C@H](CC(C)C)N(C)C(=O)C[C@@H](C(=O)N2CCOCC2)NC(=O)[C@H](C2CCCC2)N(C)C(=O)C2(CCCC2)NC(=O)[C@@H]2CC(F)(F)CN2C(=O)[C@H](CCc2ccc(C(F)(F)F)c(Cl)c2)NC(=O)CN(C)C(=O)[C@@H]1Cc1ccc(C(F)(F)F)cc1 [PP0339] ([NMeL]I[Aze][Sar][NPrPhe(4-CF3)][Sar][hPhe(3-Cl-4-CF3)][Pro(4,4-F2)][Ac5c][NMeGly(cPent)]D-Morpholide; lactam N-11)	–	–	158 nM	–	–	B (a compound having 3 or more and less than 10 is denoted as B)	B (a compound having 3 or more and less than 10 is denoted as B)
C#CCN1CC(=O)N(C)CC(=O)N(CCC)[C@@H](Cc2ccc(C(F)(F)F)cc2)C(=O)N(C)CC(=O)N[C@@H](CCc2ccc(C(F)(F)F)c(Cl)c2)C(=O)N2CCC[C@H]2C(=O)NC2(CCCC2)C(=O)N(C)[C@@H](C2CCCC2)C(=O)N(C)[C@H](C(=O)N2CCOCC2)CC(=O)N(C)[C@@H](CC(C)C)C(=O)N[C@@H]([C@@H](C)CC)C1=O [PP0750] ([NMeL]I[Gly(N-propargyl)][Sar][NPrPhe(4-CF3)][Sar][hPhe(3-Cl-4-CF3)]P[Ac5c][NMeGly(cPent)][NMeD]-Morpholide; lactam N-11)	–	–	11.1 nM	C (A compound having a KD ratio of 0.1 or more and less than 3 is denoted as C)	B (a compound having 3 or more and less than 10 is denoted as B)	–	–
CC[C@H](C)[C@@H]1NC(=O)[C@H](CC(C)C)N(C)C(=O)C[C@@H](C(=O)N2CCOCC2)N(C)C(=O)[C@H](C2CCCC2)N(C)C(=O)C2(CCCC2)NC(=O)[C@H](C)N(CC)C(=O)[C@H](CCc2cc(F)c(C(F)(F)F)c(F)c2)NC(=O)CN(C)C(=O)[C@H](Cc2ccc(C(F)(F)F)cc2)N2CCCC[C@@H](C2=O)N(C)C(=O)CN(C)C1=O [PP0589]	–	–	24.8 nM	B (a compound having 3 or more and less than 10 is denoted as B)	B (a compound having 3 or more and less than 10 is denoted as B)	–	–
CCO[C@@H]1C[C@H]2C(=O)NC3(CC(C)(C)C3)C(=O)N(C)[C@@H](C3CCCC3)C(=O)N(C)[C@H](C(=O)N(C)C)CC(=O)N(C)[C@@H](CC(F)F)C(=O)N[C@@H]([C@@H](C)CC)C(=O)N(C)CC(=O)N(C)[C@H]3C/C=C\CCN(C3=O)[C@@H](Cc3ccc(C(F)(F)F)cc3)C(=O)N(C)CC(=O)N[C@@H](CCc3ccc(C(F)(F)F)c(Cl)c3)C(=O)N2C1 [PP1747]	A (a compound having 10 or more and less than 20 is denoted as A)	A (a compound having 10 or more and less than 20 is denoted as A)	2.3 nM	–	–	–	–
CCO[C@@H]1C[C@H]2C(=O)N(C)C3(CCCC3)C(=O)N(C)[C@@H](C3CCCC3)C(=O)N(C)[C@H](C(=O)N(C)C)CC(=O)N(C)[C@@H](CC)C(=O)N[C@@H]([C@@H](C)CC)C(=O)N3CCC[C@H]3C(=O)N(C)[C@H]3C/C=C\CCN(C3=O)[C@@H](Cc3ccc(C)cc3)C(=O)N(C)CC(=O)N[C@@H](CCc3cc(F)c(C(F)(F)F)c(F)c3)C(=O)N2C1 [PP1810]	B (a compound having 3 or more and less than 10 is denoted as B)	A (a compound having 10 or more and less than 20 is denoted as A)	4.6 nM	–	–	–	–
CC[C@H](C)[C@@H]1NC(=O)[C@H](CC(C)C)N(C)C(=O)C[C@@H](C(=O)N2CCOCC2)N(C)C(=O)[C@H](C2CCCC2)N(C)C(=O)C2(CCCCC2)NC(=O)[C@@H]2CCCN2C(=O)[C@H](CCc2cc(F)c(C(F)(F)F)c(F)c2)NC(=O)CN(C)C(=O)[C@H](Cc2ccc(C(F)(F)F)cc2)N2CCCC[C@@H](C2=O)N(C)C(=O)CN(C)C1=O [PP0561]	–	–	20.9 nM	B (a compound having 3 or more and less than 10 is denoted as B)	B (a compound having 3 or more and less than 10 is denoted as B)	–	–
CCCN(C)C(=O)[C@@H]1CC(=O)N(C)[C@@H](CC(F)F)C(=O)N[C@@H]([C@@H](C)CC)C(=O)N(C)CC(=O)N(C)[C@H]2C/C=C\CCN(C2=O)[C@@H](Cc2ccc(C(F)(F)F)cc2)C(=O)N(C)CC(=O)N[C@@H](CCc2cc(F)c(C(F)(F)F)c(F)c2)C(=O)N2C[C@H](OCC)C[C@H]2C(=O)NC2(CC(F)(F)C2)C(=O)N(C)[C@@H](C2CCCC2)C(=O)N1C [PP1733]	A (a compound having 10 or more and less than 20 is denoted as A)	A (a compound having 10 or more and less than 20 is denoted as A)	3.8 nM	–	–	–	–
CCC[C@H]1C(=O)N[C@@H]([C@@H](C)CC)C(=O)N(C2CC2)CC(=O)N(C)[C@H]2C/C=C\CCN(C2=O)[C@@H](Cc2ccc(C)cc2)C(=O)N(C)CC(=O)N[C@@H](CCc2ccc(C(F)(F)F)c(OC)c2)C(=O)N2C[C@H](OCC)C[C@H]2C(=O)NC2(CC(C)(C)C2)C(=O)N(C)[C@@H](CC2CC2)C(=O)N(C)[C@H](C(=O)N(C)C)CC(=O)N1C [PP2803]	–	–	120 nM	–	–	A (a compound having 10 or more and less than 20 is denoted as A)	A (a compound having 10 or more and less than 20 is denoted as A)
C=CCCN1C(=O)[C@@H]2CCN2C(=O)[C@H](C)N(C)C(=O)[C@H]([C@@H](C)CC)NC(=O)[C@H](CC(C)C)N(C)C(=O)C[C@@H](C(=O)N2CCOCC2)N(C)C(=O)[C@H](C2CCCC2)N(C)C(=O)C2(CCCC2)NC(=O)[C@@H]2CCCN2C(=O)[C@H](CCc2ccc(C(F)(F)F)c(Cl)c2)NC(=O)CN(C)C(=O)[C@@H]1Cc1ccc(C(F)(F)F)cc1 [PP0115] ([NMeL]I[NMeA][Aze][X22][Sar][hPhe(3-Cl-4-CF3)]P[Ac5c][NMeGly(cPent)][NMeD]-Morpholide; lactam N-11)	–	–	2 nM	–	–	C (A compound having a KD ratio of 0.1 or more and less than 3 is denoted as C)	C (A compound having a KD ratio of 0.1 or more and less than 3 is denoted as C)
